Where two headings read alike, the source gives them in different places.
Columns and labels:
[1] = Hydrolysis Assay - Condition 1 (SGF); assay type: physicochemical; conditions: SGF with pepsin pH 1.5, 37° C., 0.5 mM
Description: 50 μL of compound (10 mM) in DMSO was diluted into 950 μL of Simulated Gastric Fluid (SGF) with pepsin (pH 1.5) to a final concentration of 0.5 mM. The hydrolysis kinetics were conducted at 37° C. and measured by LCMS at a certain time interval.
(§1) The corresponding LCMS chromatogram were recorded and the conversions were calculated by integration of each peak.
(§2) • 1) LCMS spectra were obtained using Agilent 1200G1956A or SHIMADZU LCMS-2020. Standard LCMS conditions were as follows (running time 1.55 minutes): • Acidic condition: Mobile Phase A: 0.0375% TFA in water (v/v). Mobile Phase B: 0.01875% TFA in acetonitrile (v/v); Column: Kinetex EVO C18 30*2.1 mm, 5 μm. • Basic condition: Mobile Phase A: 0.025% NH3·H2O in water (v/v). Mobile Phase B: Acetonitrile; Column: Kinetex EVO C18 2.1×30 mm, 5 μm. • 2) Conversion (%)=peak area 1/(peak area 1+peak area 2)*100%, peak area 1 is the integration of hydrolyzed product, peak area 2 is the integration of starting material.

[2] = Hydrolysis Assay - Condition 2 (DI Water); assay type: physicochemical; conditions: 25° C., 0.5 mM
Description: 50 μL of compound (10 mM) in DMSO was diluted into 950 μL of DI water to a final concentration of 0.5 mM. The hydrolysis kinetics were conducted at 25° C. and measured by LCMS at a certain time interval.
as §1, §2

[3] = assay type: in vitro ADME, mouse; conditions: prodrug remaining, 5 μM, 37° C.
Description: (§3) Each test was carried out in duplicate for each time point; 0 min, 15 min, 30 min, 60 min, 120, 240 min. […]

[4] = assay type: in vitro ADME, human; conditions: prodrug remaining, 5 μM, 37° C.
Description: as §3

[5] = Pharmacokinetics of 358, single IV in male C57BL/6 mice; assay type: in vivo, mouse
Description: Total fifteen male mice were used in this study with n=3 mice/time point with sparse sampling study design. Animals were administered through intravenous route with solution formulation of 358 at 2 mg/kg dose.
The extraction procedure for plasma/brain samples and the spiked plasma/brain calibration standards were identical (PMSF Stabilized Plasma and Brain used for Preparation of calibration standards):
(§4) A 20 μL of study sample plasma/brain or spiked plasma/brain calibration standard was added to individual pre-labeled micro-centrifuge tubes followed by 200 μL of internal standard prepared in acetonitrile (Rosuvastatin+Cetrizine, 50 ng/mL) was added except for blank, where 200 μL of acetonitrile was added. Samples were vortexed for 5 minutes. Samples were centrifuged for 10 minutes at a speed of 4000 rpm at 4° C. Following centrifugation, 200 μL of clear supernatant was transferred in 96 well plates and analyzed using LC-MS/MS.
Note: Brain samples were diluted (1-part of tissue: 2-part of buffer) and homogenized. The homogenate was submitted for bioanalysis and the concentrations (ng/mL) received were corrected with dilution factor (3×) and the final reported concentrations were represented in ng/g.
The plasma and brain concentration-time data of 358 and 001 were used for the pharmacokinetic analysis.
LLOQ: 358: 1.02 ng/mL for plasma and brain 001: 1.01 ng/mL for plasma and brain

[6] = Metabolic Stability in Human Hepatocytes; assay type: in vitro ADME; conditions: cryopreserved human hepatocytes, 37° C.
Description: A 2.5 uL aliquot of 100 μM test compound was incubated with 247.5 uL of cryopreserved hepatocytes suspended in serum-free incubation medium at 5×10^5 viable cells/mL. The mixture was incubated at 37° C. and shaken at 500 rpm for the designated time points (0.5, 15, 30, 60, 90, or 120 min). At each time point, 25 μL aliquot of incubation mixture was transferred to 125 μL of cold acetonitrile containing internal standard, followed by centrifugation for 30 min at 3,220 g. 100 μL of supernatant was mixed with 100 μL of distilled water for analysis by LC-MS/MS. Peak areas were determined from extracted ion chromatograms and in vitro half-life (t1/2) was determined from the concentration vs time regression slope, in vitro t1/2=0.693/k. Conversion of the in vitro t1/2 (in min) into the in vitro intrinsic clearance (in vitro CLint, in μL/min/10^6 cells) is done using: in vitro CLint=kV/N.

[7] = in vivo; assay type: in vivo, mouse; conditions: 001 (metabolite) in brain after 321 IV 2 mg/kg
Description: Total fifteen male mice were used in this study with n=3 mice/time point with sparse sampling study design. Animals were administered through intravenous route with solution formulation of 321 at 2 mg/kg dose.
as §4, with “The extraction procedure for plasma/brain samples and the spiked plasma/brain calibration standards were identical (PMSF Stabilized Plasma and Brain used for Preparation of calibration standards): A” for “A”, “(Rosuvastatin,” for “(Rosuvastatin+Cetrizine,”
(§5) Brain samples were diluted (1-part of tissue: 2-part of buffer) and homogenized. The homogenate was submitted for bioanalysis and the concentrations (ng/mL) received were corrected with dilution factor (3×) and the final reported concentrations were represented in ng/g.
The plasma and brain concentration-time data of 321 and 001 were used for the pharmacokinetic analysis.
LLOQ: 321: 1.02 ng/mL for plasma and brain 001: 1.01 ng/mL for plasma and brain

[8] = in vivo; assay type: in vivo, mouse; conditions: 001 (metabolite) in brain after 323 IV 2 mg/kg
Description: Total fifteen male mice were used in this study with n=3 mice/time point with sparse sampling study design. Animals were administered through intravenous route with solution formulation of 323 at 2 mg/kg dose.
as §4, with “The extraction procedure for plasma/brain samples and the spiked plasma/brain calibration standards were identical (PMSF Stabilized Plasma and Brain used for Preparation of calibration standards): A” for “A”
as §5
The plasma and brain concentration-time data of 323 and 001 were used for the pharmacokinetic analysis.
LLOQ: 323: 1.02 ng/mL for plasma and brain 001: 1.01 ng/mL for plasma and brain

[9] = in vivo; cited from earlier work
[10] = fermentation, exposure to light, exposure to heat, aqueous medium; cited from earlier work

COc1ccc([C@@]23CCC(OC(=O)OC(C)(C)C)=C[C@@H]2N(C)CC3)cc1OC [Compound 358, [(3aS,7aS)-3a-(3,4-dimethoxyphenyl)-1-methyl-3,4,5,7a-tetrahydro-2H-indol-6-yl] tert-butyl carbonate]
Condition 1 Conversion (%) ([1]; 1 min): 0% | Condition 1 Conversion (%) ([1]; 5 min): 0% | Condition 1 Conversion (%) ([1]; 30 min): 0% | Condition 1 Conversion (%) ([1]; 1 h): 5% | Condition 1 Conversion (%) ([1]; 4 h): 100% | Condition 1 Conversion (%) ([1]; 24 h): 100% | Condition 2 Conversion (%) ([2]; 1 min): 0% | Condition 2 Conversion (%) ([2]; 5 min): 0% | Condition 2 Conversion (%) ([2]; 30 min): 0% | Condition 2 Conversion (%) ([2]; 1 h): 0% | Condition 2 Conversion (%) ([2]; 4 h): 83.46% | Condition 2 Conversion (%) ([2]; 24 h): 100% | Mouse Plasma Prodrug (%) ([3]; 0 min): 100% | Mouse Plasma Prodrug (%) ([3]; 15 min): 14.8% | Mouse Plasma Prodrug (%) ([3]; 30 min): 10.3% | Mouse Plasma Prodrug (%) ([3]; 60 min): 5.4% | Mouse Plasma Prodrug (%) ([3]; 120 min): 0.0% | Mouse Plasma Prodrug (%) ([3]; 240 min): 0.0% | Human Plasma Prodrug (%) ([4]; 0 min): 100% | Human Plasma Prodrug (%) ([4]; 15 min): 75.4% | Human Plasma Prodrug (%) ([4]; 30 min): 58.1% | Human Plasma Prodrug (%) ([4]; 60 min): 35.5% | Human Plasma Prodrug (%) ([4]; 120 min): 11.7% | Human Plasma Prodrug (%) ([4]; 240 min): 0.7% | brain concentrations quantifiable up to ([5]; 358 after 358 IV 2 mg/kg): ≤ 0.08 h | concentration at 0.08 h ([5]; male, C57BL/6, mouse, brain, 358 after 358 IV 2 mg/kg, read-out: Brain concentrations (mean)): 18.3 ng/g | plasma concentrations quantifiable up to ([5]; male, C57BL/6, mouse, in vivo, iv, 2 mg/kg): up to 0.25 h | concentration at 0.08 h ([5]; male, C57BL/6, mouse, plasma, 358 after 358 IV 2 mg/kg, read-out: Plasma concentrations (mean)): 14.3 ng/mL | concentration at 0.25 h ([5]; male, C57BL/6, mouse, plasma, 358 after 358 IV 2 mg/kg, 0.25 h, average of two values, read-out: Plasma concentrations (mean)): 1.51 ng/mL

COc1ccc([C@@]23CCC(=O)C[C@@H]2N(C)CC3)cc1OC (racemic) [Compound 001, (3aS,7aS)-3a-(3,4-dimethoxyphenyl)-1-methyl-2,3,4,5,7,7a-hexahydroindol-6-one, reference compound]
half-life [6]: 17 min | hepatocyte CLint [6]: 40 µL/min/1e6 cells | AUClast [7]: 12.72 ng·h/g | AUClast [8]: 411.95 ng·h/g | AUClast ([5]; 001 (metabolite) in brain after 358 IV 2 mg/kg): 190.88 ng·h/g | half-life in plasma [9]: less than 2 hours

COc1ccc([C@@]23CCC(=O)C[C@@H]2N(C)CC3)cc1OC [Mesembrine, 3a-(3,4-dimethoxyphenyl)-octahydro-1-methyl-6H-indol-6-one]
stability [10]: unstable

Reference: patent US20240408119A1, “DELIVERY OF THERAPEUTIC ALKALOID COMPOUNDS” (priority 2022, published 2024)
